Results reported in patent publication US8575158B2, “1-phenyl-substituted heterocyclyl derivatives and their use as prostaglandin D2 receptor modulators” (Actelion Pharmaceuticals Ltd., priority 2010, dated 2013).

What follows are compounds tested against T1, hCRTH2 receptor (Homo sapiens, UniProt Q9Y5Y4) (assay: Radioligand displacement assay (3H-PGD2) on hCRTH2 receptor membranes). Details: antagonistic activity, 3H-PGD2 radioligand displacement, HEK293-hCRTH2 membranes.
T1 construct: expressed in transfected cells; host or cells: HEK293
T1 sequence (Q9Y5Y4 1-395): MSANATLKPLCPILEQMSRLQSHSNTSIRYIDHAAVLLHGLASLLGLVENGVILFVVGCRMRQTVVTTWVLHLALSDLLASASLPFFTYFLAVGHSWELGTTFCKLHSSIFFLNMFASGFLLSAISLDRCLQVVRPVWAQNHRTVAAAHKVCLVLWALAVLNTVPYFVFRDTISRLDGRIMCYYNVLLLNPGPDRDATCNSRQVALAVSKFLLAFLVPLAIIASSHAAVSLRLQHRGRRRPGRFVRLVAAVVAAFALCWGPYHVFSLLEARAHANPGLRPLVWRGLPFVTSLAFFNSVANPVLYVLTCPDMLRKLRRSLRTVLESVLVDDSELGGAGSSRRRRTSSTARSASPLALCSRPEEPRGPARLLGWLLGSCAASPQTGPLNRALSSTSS
Assay type: binding

SMILES	IC50
O=C(O)COc1ccc(Cl)cc1C1c2ccccc2CCN1C(=O)OCc1ccc(C(F)(F)F)cc1 (racemic) [Example 363]	34.1 nM
O=C(O)COc1ccc(Cl)cc1C1c2ccccc2CCN1C(=O)OCc1cccc(Cl)c1 (racemic) [Example 364]	16.5 nM
O=C(O)COc1ccccc1C1c2ccccc2CCN1C(=O)OCc1ccccc1 (racemic) [Example 366]	41.5 nM
Cc1cn(CCC(=O)N2CCc3ccccc3C2c2cc(Cl)ccc2OCC(=O)O)c2ccc(F)cc12 (racemic) [Example 368]	20.7 nM
O=C(O)COc1ccc(Cl)cc1C1c2ccccc2CCN1C(=O)CCn1ccc2ccc(C(F)(F)F)cc21 (racemic) [Example 370]	80.6 nM
N#Cc1ccc2c(ccn2CCC(=O)N2CCc3ccccc3C2c2cc(Cl)ccc2OCC(=O)O)c1 (racemic) [Example 371]	53.1 nM
COc1cc2c(ccn2CCC(=O)N2CCc3ccccc3C2c2cc(Cl)ccc2OCC(=O)O)cc1Cl (racemic) [Example 375]	81.8 nM
COc1cc(OC)c2ccn(CCC(=O)N3CCc4ccccc4C3c3cc(Cl)ccc3OCC(=O)O)c2n1 (racemic) [Example 376]	32.5 nM
O=C(O)COc1ccc(Cl)cc1C1c2ccccc2CCN1C(=O)CCn1ccc2cc(F)ccc21 (racemic) [Example 379]	16.8 nM
O=C(O)COc1ccc(Cl)cc1C1c2ccccc2CCN1C(=O)CCn1ccc2ncccc21 (racemic) [Example 381]	31.6 nM
Cc1ccc2ccn(CCC(=O)N3CCc4ccccc4C3c3cc(Cl)ccc3OCC(=O)O)c2c1 (racemic) [Example 384]	14.8 nM
O=C(O)COc1ccc(Cl)cc1C1c2ccccc2CCN1C(=O)CCn1ccc2cc(Cl)ccc21 (racemic) [Example 385]	51.2 nM
O=C(O)COc1ccc(Cl)cc1C1c2ccccc2CCN1C(=O)CCn1ccc2ccc(F)cc21 (racemic) [Example 388]	25.7 nM
O=C(O)COc1ccc(Cl)cc1C1c2ccccc2CCN1C(=O)CCn1ccc2ncc(Cl)nc21 (racemic) [Example 404]	42.6 nM
COc1ccccc1OCC(=O)N1CCc2ccccc2C1c1cc(Cl)ccc1OCC(=O)O (racemic) [Example 406]	26.8 nM
O=C(O)COc1ccc(Cl)cc1C1c2ccccc2CCN1C(=O)COc1ccccc1 (racemic) [Example 409]	74 nM
O=C(O)COc1ccc(Cl)cc1C1c2ccccc2CCN1C(=O)COc1ccccc1F (racemic) [Example 410]	70.7 nM

The remaining lines, values ahead:

IC50	SMILES
18.8 nM	Cc1ccc(COC(=O)N2CCc3ccccc3C2c2cc(Cl)ccc2OCC(=O)O)cc1 (racemic) [Example 360]
22.8 nM	COc1ccc(COC(=O)N2CCc3ccccc3C2c2cc(Cl)ccc2OCC(=O)O)cc1 (racemic) [Example 361]
14.3 nM	O=C(O)COc1ccc(Cl)cc1C1c2ccccc2CCN1C(=O)OCc1ccc(F)cc1 (racemic) [Example 362]
37.8 nM	O=C(O)COc1ccc(Cl)cc1C1c2cc(F)ccc2CCN1C(=O)OCc1ccccc1 (racemic) [Example 365]
195 nM	O=C(O)COc1ccc(Cl)cc1C1c2ccccc2CCN1C(=O)CCn1ccc2cccnc21 (racemic) [Example 369]
596 nM	O=C(O)COc1ccc(Cl)cc1C1c2ccccc2CCN1C(=O)CCn1ccc2ccncc21 (racemic) [Example 372]
433 nM	COc1cc2c(ccn2CCC(=O)N2CCc3ccccc3C2c2cc(Cl)ccc2OCC(=O)O)cn1 (racemic) [Example 373]
12.3 nM	COc1ccc2ccn(CCC(=O)N3CCc4ccccc4C3c3cc(Cl)ccc3OCC(=O)O)c2n1 (racemic) [Example 374]
9.71 nM	COc1cc(OC)c2ccn(CCC(=O)N3CCc4ccccc4C3c3cc(Cl)ccc3OCC(=O)O)c2c1 (racemic) [Example 377]
11.6 nM	O=C(O)COc1ccc(Cl)cc1C1c2ccccc2CCN1C(=O)CCn1ccc2ccccc21 (racemic) [Example 378]
24.3 nM	O=C(O)COc1ccc(Cl)cc1C1c2ccccc2CCN1C(=O)CCn1ccc2cccc(Cl)c21 (racemic) [Example 380]
20.7 nM	COc1cccc2c1ccn2CCC(=O)N1CCc2ccccc2C1c1cc(Cl)ccc1OCC(=O)O (racemic) [Example 382]
8.5 nM	O=C(O)COc1ccc(Cl)cc1C1c2ccccc2CCN1C(=O)CCn1nc(Cl)c2ccccc21 (racemic) [Example 383]
11.6 nM	O=C(O)COc1ccc(Cl)cc1C1c2ccccc2CCN1C(=O)CCn1ccc2ccc(Cl)cc21 (racemic) [Example 386]
36.7 nM	O=C(O)COc1ccc(Cl)cc1C1c2ccccc2CCN1C(=O)CCn1ccc2c(F)cccc21 (racemic) [Example 387]
70.4 nM	Cc1c(C)n(CCC(=O)N2CCc3ccccc3C2c2cc(Cl)ccc2OCC(=O)O)c2ccccc12 (racemic) [Example 389]
7.52 nM	COc1ccc2ccn(CCC(=O)N3CCc4ccccc4C3c3cc(Cl)ccc3OCC(=O)O)c2c1 (racemic) [Example 390]
451 nM	O=C(O)COc1ccc(Cl)cc1C1c2ccccc2CCN1C(=O)CCn1c(C(F)(F)F)cc2ccccc21 (racemic) [Example 405]
34.9 nM	O=C(O)COc1ccc(Cl)cc1C1c2ccccc2CCN1C(=O)COc1ccc(F)cc1 (racemic) [Example 407]
177 nM	Cc1cccc(CCC(=O)N2CCc3ccccc3C2c2cc(Cl)ccc2OCC(=O)O)n1 (racemic) [Example 408]
25.7 nM	O=C(O)COc1ccc(Cl)cc1C1c2ccccc2CCN1C(=O)COc1cccc2cccnc12 (racemic) [Example 411]

Same assay, conditions: antagonistic activity; 3H-PGD2 displacement on HEK293-hCRTH2 membrane fragments

SMILES	IC50
O=C(O)COc1ccc(Cl)cc1C1c2ccccc2CCN1C(=O)OCc1cc(F)ccc1F (racemic) [Example 258]	7.54 nM
O=C(O)COc1ccc(Cl)cc1C1c2ccccc2CCN1C(=O)OCc1cc(Cl)ccc1F (racemic) [Example 259]	5.29 nM
O=C(O)COc1ccc(Cl)cc1C1c2ccccc2CCN1C(=O)OCc1cc(F)ccc1Cl (racemic) [Example 260]	15.1 nM
O=C(O)COc1ccc(Cl)cc1C1c2ccccc2CCN1C(=O)OCC1CCCCC1 (racemic) [Example 262]	9.43 nM
O=C(O)COc1ccc(Cl)cc1C1c2ccccc2CCN1C(=O)OCC1CCCC1 (racemic) [Example 264]	13.1 nM
COCCOC(=O)N1CCc2ccccc2C1c1cc(Cl)ccc1OCC(=O)O (racemic) [Example 267]	21.2 nM
Cc1cc(C)n(COC(=O)N2CCc3ccccc3C2c2cc(Cl)ccc2OCC(=O)O)n1 (racemic) [Example 269]	4.95 nM
Cc1cc(COC(=O)N2CCc3ccccc3C2c2cc(Cl)ccc2OCC(=O)O)no1 (racemic) [Example 270]	8.31 nM

Second part, the compound after the results:

IC50	SMILES
7.91 nM	Cn1ccc(COC(=O)N2CCc3ccccc3C2c2cc(Cl)ccc2OCC(=O)O)n1 (racemic) [Example 263]
37.6 nM	CC(C)COC(=O)N1CCc2ccccc2C1c1cc(Cl)ccc1OCC(=O)O (racemic) [Example 265]
24.5 nM	CCCCOC(=O)N1CCc2ccccc2C1c1cc(Cl)ccc1OCC(=O)O (racemic) [Example 266]
27.7 nM	O=C(O)COc1ccc(Cl)cc1C1c2ccccc2CCN1C(=O)OCC1CC1 (racemic) [Example 268]
12 nM	Cc1cc(COC(=O)N2CCc3ccccc3C2c2cc(Cl)ccc2OCC(=O)O)nn1C (racemic) [Example 271]
17.1 nM	O=C(O)COc1ccc(Cl)cc1C1c2ccccc2CCN1C(=O)OCc1ccc(Cl)cc1 (racemic) [Example 272]
